Data as given in PubChem BioAssay (NCI).
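Values below derive from 48-hour exposures of cells grown in 96-well plates, with endpoints linearly interpolated between the two concentrations bracketing the appropriate inhibition level. At the GI50, growth is halved. TGI: concentration producing complete growth inhibition.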

Experiments:
Assay in all cases: inhibition of tumour cell growth, NCI panel, 48 h
[1] = system: 786-0 renal
[2] = system: A498 renal
[3] = system: A549 NSCLC
[4] = system: ACHN renal
[5] = system: BT-549 breast
[6] = system: CCRF-CEM leukemia
[7] = system: COLO 205 colon
[8] = system: DU-145 prostate
[9] = system: EKVX NSCLC
[10] = system: HCC-2998 colon
[11] = system: HCT-116 colon
[12] = system: HCT-15 colon
[13] = system: HL-60(TB) leukemia
[14] = system: HOP-62 NSCLC
[15] = system: HS 578T breast
[16] = system: IGROV1 ovarian
[17] = system: K-562 leukemia
[18] = system: KM12 colon
[19] = system: LOX IMVI melanoma
[20] = system: MALME-3M melanoma
[21] = system: MCF7 breast
[22] = system: MDA-MB-231 breast
[23] = system: MDA-MB-435
[24] = system: MOLT-4 leukemia
[25] = system: NCI-H23 lung
[26] = system: NCI-H460 lung
[27] = system: NCI-H522 lung
[28] = system: NCI/ADR-RES ovarian
[29] = system: OVCAR-3 ovarian
[30] = system: OVCAR-4 ovarian
[31] = system: OVCAR-5 ovarian
[32] = system: OVCAR-8 ovarian
[33] = system: PC-3 prostate
[34] = system: RPMI-8226 leukemia
[35] = system: RXF 393 renal
[36] = system: SF-268 CNS
[37] = system: SF-295 CNS
[38] = system: SF-539 CNS
[39] = system: SK-MEL-28 melanoma
[40] = system: SK-MEL-5 melanoma
[41] = system: SK-OV-3 ovarian
[42] = system: SN12C renal
[43] = system: SR leukemia
[44] = system: SW-620 colon
[45] = system: T-47D breast
[46] = system: TK-10 renal
[47] = system: U251 CNS
[48] = system: UACC-257 melanoma
[49] = system: UACC-62 melanoma
[50] = system: CAKI-1 renal
[51] = system: HT29 colon
[52] = system: M14 melanoma
[53] = system: NCI-H226 lung
[54] = system: SK-MEL-2 melanoma
[55] = system: SNB-19 CNS
[56] = system: SNB-75 CNS
[57] = system: UO-31 renal
[58] = system: HOP-92 NSCLC

COC(=O)[C@@H](Cc1ccccc1)NNC(=O)OC(C)(C)C
TGI [1]: > 100 µM
TGI [2]: > 100 µM
TGI [3]: > 100 µM
TGI [4]: > 100 µM
TGI [5]: > 100 µM
TGI [6]: > 100 µM
TGI [7]: > 100 µM
TGI [8]: > 100 µM
TGI [9]: > 100 µM
TGI [10]: > 100 µM
TGI [11]: > 100 µM
TGI [12]: > 100 µM
TGI [13]: > 100 µM
TGI [14]: > 100 µM
TGI [15]: > 100 µM
TGI [16]: > 100 µM
TGI [17]: > 100 µM
TGI [18]: > 100 µM
TGI [19]: > 100 µM
TGI [20]: > 100 µM
TGI [21]: > 100 µM
TGI [22]: > 100 µM
TGI [23]: > 100 µM
TGI [24]: > 100 µM
TGI [25]: > 100 µM
TGI [26]: > 100 µM
TGI [27]: > 100 µM
TGI [28]: > 100 µM
TGI [29]: > 100 µM
TGI [30]: > 100 µM
TGI [31]: > 100 µM
TGI [32]: > 100 µM
TGI [33]: > 100 µM
TGI [34]: > 100 µM
TGI [35]: > 100 µM
TGI [36]: > 100 µM
TGI [37]: > 100 µM
TGI [38]: > 100 µM
TGI [39]: > 100 µM
TGI [40]: > 100 µM
TGI [41]: > 100 µM
TGI [42]: > 100 µM
TGI [43]: > 100 µM
TGI [44]: > 100 µM
TGI [45]: > 100 µM
TGI [46]: > 100 µM
TGI [47]: > 100 µM
TGI [48]: > 100 µM
TGI [49]: > 100 µM

Cn1cc(C2=C(c3cn(CCCO)c4ccccc34)C(=O)NC2=O)c2ccccc21
GI50 [1]: 7.03 µM
TGI [1]: > 22.8 µM
GI50 [2]: 5.45 µM
TGI [2]: 13.9 µM
GI50 [3]: 5.68 µM
TGI [3]: 17.5 µM
GI50 [4]: 4.99 µM
TGI [4]: 19.8 µM
GI50 [5]: 3.76 µM
TGI [5]: 11.5 µM
GI50 [50]: 3.93 µM
TGI [50]: 16.9 µM
GI50 [6]: 3.01 µM
TGI [6]: 18.2 µM
GI50 [7]: 5.39 µM
TGI [7]: 16 µM
GI50 [8]: 6.97 µM
TGI [8]: > 22.5 µM
GI50 [10]: 7.83 µM
TGI [10]: > 25 µM
GI50 [11]: 4.62 µM
TGI [11]: > 17.7 µM
GI50 [12]: 3.33 µM
TGI [12]: > 25 µM
GI50 [13]: 6.1 µM
TGI [13]: 15.3 µM
GI50 [14]: 7 µM
TGI [14]: 19.5 µM
GI50 [15]: 5.35 µM
TGI [15]: 17.3 µM
GI50 [51]: 5.4 µM
TGI [51]: > 19.3 µM
GI50 [16]: 6.04 µM
TGI [16]: 16.6 µM
GI50 [17]: 5.61 µM
TGI [17]: > 25 µM
GI50 [18]: 1.77 µM
TGI [18]: 16.8 µM
GI50 [19]: 6.12 µM
TGI [19]: > 21.4 µM
GI50 [52]: 7.29 µM
TGI [52]: > 25 µM
GI50 [20]: 8.52 µM
TGI [20]: 21.3 µM
GI50 [21]: 2.66 µM
TGI [21]: 17.4 µM
GI50 [22]: 9.38 µM
TGI [22]: > 25 µM
GI50 [23]: 2.34 µM
TGI [23]: > 25 µM
GI50 [24]: 6.05 µM
TGI [24]: > 20.7 µM
GI50 [53]: 5.05 µM
TGI [53]: 19.1 µM
GI50 [25]: 5.37 µM
TGI [25]: 18 µM
GI50 [26]: 4.9 µM
TGI [26]: 12.5 µM
GI50 [27]: 3.47 µM
TGI [27]: 13.2 µM
GI50 [28]: 7.23 µM
TGI [28]: > 22.8 µM
GI50 [29]: 6 µM
TGI [29]: > 19.5 µM
GI50 [30]: 4.63 µM
TGI [30]: > 20.7 µM
GI50 [31]: 11.4 µM
TGI [31]: > 25 µM
GI50 [32]: 6.4 µM
TGI [32]: > 21.1 µM
GI50 [33]: 6.8 µM
TGI [33]: 24.6 µM
GI50 [34]: 5.97 µM
TGI [34]: 15 µM
GI50 [35]: 3.87 µM
TGI [35]: 9.56 µM
GI50 [36]: 6.11 µM
TGI [36]: 17.6 µM
GI50 [37]: 5.11 µM
TGI [37]: > 17 µM
GI50 [38]: 4.57 µM
TGI [38]: 11.4 µM
GI50 [54]: 1.79 µM
TGI [54]: 4.72 µM
GI50 [39]: 6.49 µM
TGI [39]: 18.8 µM
GI50 [40]: 4.2 µM
TGI [40]: 10.8 µM
GI50 [41]: 4.29 µM
TGI [41]: > 22.1 µM
GI50 [42]: 5.25 µM
TGI [42]: > 25 µM
GI50 [55]: 9.36 µM
TGI [55]: > 25 µM
GI50 [56]: 3.11 µM
TGI [56]: 12.3 µM
GI50 [43]: 2.71 µM
TGI [43]: > 19.1 µM
GI50 [44]: 7.11 µM
TGI [44]: > 25 µM
GI50 [45]: 4.94 µM
TGI [45]: 18.6 µM
GI50 [46]: 3.96 µM
TGI [46]: 13.3 µM
GI50 [47]: 6.15 µM
TGI [47]: 19.3 µM
GI50 [48]: 8.15 µM
TGI [48]: 24.7 µM
GI50 [49]: 5.56 µM
TGI [49]: 12.3 µM
GI50 [57]: 4.04 µM
TGI [57]: 14 µM

Nc1nc(N)c2cc(CNc3ccc(C(=O)NC(CC(=O)O)C(=O)O)cc3)ccc2n1 (stereo not drawn)
GI50 [1]: 0.103 µM
TGI [1]: > 100 µM
TGI [2]: > 100 µM
GI50 [3]: 0.0578 µM
TGI [3]: > 100 µM
GI50 [4]: 0.18 µM
TGI [4]: > 100 µM
GI50 [5]: 0.429 µM
TGI [5]: > 100 µM
GI50 [50]: 0.108 µM
TGI [50]: > 100 µM
GI50 [6]: 0.0839 µM
TGI [6]: > 100 µM
GI50 [7]: 3.4 µM
TGI [7]: > 100 µM
GI50 [8]: 0.17 µM
TGI [8]: > 100 µM
TGI [9]: > 100 µM
GI50 [10]: 0.281 µM
TGI [10]: > 82 µM
GI50 [11]: 0.026 µM
TGI [11]: > 100 µM
GI50 [12]: 0.049 µM
TGI [12]: > 100 µM
GI50 [13]: 0.0325 µM
TGI [13]: > 100 µM
GI50 [14]: 0.196 µM
TGI [14]: > 100 µM
GI50 [58]: > 41 µM
TGI [58]: > 100 µM
GI50 [15]: > 55.4 µM
TGI [15]: > 100 µM
GI50 [51]: 0.0594 µM
TGI [51]: > 100 µM
GI50 [16]: 0.187 µM
TGI [16]: > 100 µM
GI50 [17]: 0.0359 µM
TGI [17]: > 100 µM
GI50 [18]: 0.0817 µM
TGI [18]: > 100 µM
GI50 [19]: 0.0434 µM
TGI [19]: > 100 µM
GI50 [52]: 0.119 µM
TGI [52]: > 87.7 µM
TGI [20]: > 100 µM
GI50 [21]: 0.0621 µM
TGI [21]: > 100 µM
GI50 [22]: > 83.7 µM
TGI [22]: > 100 µM
GI50 [23]: 0.0589 µM
TGI [23]: > 100 µM
GI50 [24]: 0.825 µM
TGI [24]: > 100 µM
TGI [53]: > 100 µM
GI50 [25]: 0.311 µM
TGI [25]: > 100 µM
GI50 [26]: 0.0492 µM
TGI [26]: > 100 µM
TGI [27]: > 100 µM
GI50 [28]: 0.126 µM
TGI [28]: > 100 µM
GI50 [29]: 3.83 µM
TGI [29]: > 100 µM
GI50 [30]: > 100 µM
TGI [30]: > 100 µM
TGI [31]: > 100 µM
GI50 [32]: 0.104 µM
TGI [32]: > 100 µM
TGI [33]: > 100 µM
GI50 [34]: 0.694 µM
TGI [34]: > 100 µM
GI50 [35]: > 100 µM
TGI [35]: > 100 µM
GI50 [36]: 0.174 µM
TGI [36]: > 100 µM
GI50 [37]: 0.0611 µM
GI50 [38]: 0.162 µM
TGI [38]: > 100 µM
TGI [54]: > 100 µM
TGI [39]: > 100 µM
GI50 [40]: 0.34 µM
TGI [40]: > 100 µM
GI50 [41]: 1.3 µM
TGI [41]: > 100 µM
GI50 [42]: 0.211 µM
TGI [42]: > 100 µM
GI50 [55]: 2.16 µM
TGI [55]: > 100 µM
TGI [43]: > 100 µM
GI50 [44]: 0.0432 µM
TGI [44]: > 100 µM
GI50 [45]: > 100 µM
TGI [45]: > 100 µM
TGI [46]: > 100 µM
GI50 [47]: 0.2 µM
TGI [47]: > 100 µM
GI50 [48]: > 100 µM
TGI [48]: > 100 µM
GI50 [49]: 0.218 µM
TGI [49]: > 100 µM
GI50 [57]: 0.358 µM
TGI [57]: > 100 µM
